Results from the NIST ThermoML archive (doi:10.1021/acs.jced.5b00242).

How the values were obtained:
[1] = xn = mol fraction of the nth substance listed; conditions: 101 kPa, Liquid; for viscosity: Stabinger Viscometer; for mass density: Vibrating tube method
[2] = refractive index (Na D-line) (dimensionless); xn = mol fraction of the nth substance listed; conditions: 101 kPa, Liquid, Standard Abbe refractometry

CCn1cc[n+](C)c1.O=C([O-])[C@@H]1CCCN1 [1-ethyl-3-methyl-1H-imidazolium L-prolinate] + CCn1cc[n+](C)c1.N#C[C-](C#N)C#N
Conditions	mass density, [1] [kg/m3]	refractive index, [2]	viscosity, [1] [mPa·s]
293.15 K, x2 = 0	1145.9	1.52291	1928.4
293.15 K, x2 = 0.2501	1131.7	1.52057	731.38
293.15 K, x2 = 0.5002	1116.4	1.5191	183.74
293.15 K, x2 = 0.7501	1100.6	1.51665	49.1
298.15 K, x2 = 0	1142.8	1.52151	1194.6
298.15 K, x2 = 0.2501	1128.4	1.51913	474.82
298.15 K, x2 = 0.5002	1113.1	1.5176	131.11
298.15 K, x2 = 0.7501	1097.2	1.51508	38.6
303.15 K, x2 = 0	1139.6	1.52009	771.51
303.15 K, x2 = 0.2501	1125.1	1.51769	320.94
303.15 K, x2 = 0.5002	1109.8	1.51611	96.6
303.15 K, x2 = 0.7501	1093.8	1.51349	30.96
308.15 K, x2 = 0	1136.4	1.5187	517.61
308.15 K, x2 = 0.2501	1121.8	1.51622	224.85
308.15 K, x2 = 0.5002	1106.6	1.5146	73.15
308.15 K, x2 = 0.7501	1090.4	1.5119	25.29
313.15 K, x2 = 0	1133.2	1.51731	359.21
313.15 K, x2 = 0.2501	1118.7	1.51477	162.54
313.15 K, x2 = 0.5002	1103.3	1.51306	56.72
313.15 K, x2 = 0.7501	1087	1.51033	21
318.15 K, x2 = 0	1130.1	1.51591	256.92
318.15 K, x2 = 0.2501	1115.5	1.51333	120.81
318.15 K, x2 = 0.5002	1100.1	1.51153	44.93
318.15 K, x2 = 0.7501	1083.7	1.50875	17.68
323.15 K, x2 = 0	1127.1	1.51454	188.66
323.15 K, x2 = 0.2501	1112.4	1.51191	92
323.15 K, x2 = 0.5002	1096.8	1.51006	36.25
323.15 K, x2 = 0.7501	1080.3	1.50717	15.08
328.15 K, x2 = 0	1124	1.51315	141.76
328.15 K, x2 = 0.2501	1109.3	1.51046	71.61
328.15 K, x2 = 0.5002	1093.6	1.50858	29.73
328.15 K, x2 = 0.7501	1077	1.50561	13
333.15 K, x2 = 0	1121	1.51177	108.85
333.15 K, x2 = 0.2501	1106.2	1.50899	56.8
333.15 K, x2 = 0.5002	1090.4	1.5071	24.75
333.15 K, x2 = 0.7501	1073.6	1.504	11.32
338.15 K, x2 = 0	1118	1.51035	85.12
338.15 K, x2 = 0.2501	1103.1	1.50752	45.83
338.15 K, x2 = 0.5002	1087.2	1.50564	20.87
338.15 K, x2 = 0.7501	1070.3	1.50249	9.95
343.15 K, x2 = 0	1115	1.50897	67.69
343.15 K, x2 = 0.2501	1100	1.50611	37.55
343.15 K, x2 = 0.5002	1084	1.50412	17.8
343.15 K, x2 = 0.7501	1067	1.50096	8.82
348.15 K, x2 = 0	1112	1.50757	54.73
348.15 K, x2 = 0.2501	1096.9	1.50461	31.2
348.15 K, x2 = 0.5002	1080.8	1.50269	15.35
348.15 K, x2 = 0.7501	1063.8	1.49941	7.87
353.15 K, x2 = 0	1109.1	1.5062	44.89
353.15 K, x2 = 0.2501	1093.8	1.50319	26.24
353.15 K, x2 = 0.5002	1077.7	1.50126	13.37
353.15 K, x2 = 0.7501	1060.5	1.49791	7.07

CCn1cc[n+](C)c1.C[C@H](N)C(=O)[O-] [1-ethyl-3-methylimidazolium L-alaninate] + CCn1cc[n+](C)c1.N#C[C-](C#N)C#N
Conditions	mass density, [1] [kg/m3]	refractive index, [2]	viscosity, [1] [mPa·s]
293.15 K, x2 = 0	1126.3	1.51366	382.06
293.15 K, x2 = 0.2506	1113.7	1.51476	146.57
293.15 K, x2 = 0.5	1102.2	1.51409	78.6
293.15 K, x2 = 0.7499	1092.9	1.51367	31.55
298.15 K, x2 = 0	1123	1.51223	263.98
298.15 K, x2 = 0.2506	1110.4	1.5133	107.2
298.15 K, x2 = 0.5	1098.9	1.51258	60.26
298.15 K, x2 = 0.7499	1089.3	1.5121	25.68
303.15 K, x2 = 0	1119.8	1.51081	187.79
303.15 K, x2 = 0.2506	1107.1	1.51184	80.47
303.15 K, x2 = 0.5	1095.6	1.51107	46.89
303.15 K, x2 = 0.7499	1085.9	1.51053	21.18
308.15 K, x2 = 0	1116.6	1.50937	137.47
308.15 K, x2 = 0.2506	1104	1.51038	61.83
308.15 K, x2 = 0.5	1092.3	1.5095	37.29
308.15 K, x2 = 0.7499	1082.6	1.50893	17.74
313.15 K, x2 = 0	1113.5	1.50793	103.54
313.15 K, x2 = 0.2506	1100.8	1.50888	49.16
313.15 K, x2 = 0.5	1089.1	1.50796	30.22
313.15 K, x2 = 0.7499	1079.2	1.50731	14.83
318.15 K, x2 = 0	1110.5	1.50651	79.34
318.15 K, x2 = 0.2506	1097.8	1.50736	38.96
318.15 K, x2 = 0.5	1085.9	1.50643	24.9
318.15 K, x2 = 0.7499	1075.9	1.50568	12.94
323.15 K, x2 = 0	1107.5	1.50505	62.21
323.15 K, x2 = 0.2506	1094.6	1.5059	31.75
323.15 K, x2 = 0.5	1082.7	1.50488	20.83
323.15 K, x2 = 0.7499	1072.7	1.50401	11.23
328.15 K, x2 = 0	1104.4	1.50358	49.69
328.15 K, x2 = 0.2506	1091.5	1.50436	26.27
328.15 K, x2 = 0.5	1079.5	1.50338	17.64
328.15 K, x2 = 0.7499	1069.4	1.50244	9.84
333.15 K, x2 = 0	1101.3	1.50217	40.5
333.15 K, x2 = 0.2506	1088.4	1.50293	22.29
333.15 K, x2 = 0.5	1076.3	1.50191	15.08
333.15 K, x2 = 0.7499	1066.1	1.50085	8.51
338.15 K, x2 = 0	1098.3	1.50074	33.22
338.15 K, x2 = 0.2506	1085.3	1.50148	18.7
338.15 K, x2 = 0.5	1073.1	1.50039	13.09
338.15 K, x2 = 0.7499	1062.9	1.49926	7.74
343.15 K, x2 = 0	1095.2	1.49932	27.72
343.15 K, x2 = 0.2506	1082.2	1.49997	16.04
343.15 K, x2 = 0.5	1069.9	1.49888	11.45
343.15 K, x2 = 0.7499	1059.6	1.49771	6.93
348.15 K, x2 = 0	1092.1	1.49795	23.38
348.15 K, x2 = 0.2506	1079.1	1.49851	13.89
348.15 K, x2 = 0.5	1066.6	1.49739	10.1
348.15 K, x2 = 0.7499	1056.3	1.49613	6.26
353.15 K, x2 = 0	1088.9	1.49656	20.03
353.15 K, x2 = 0.2506	1075.9	1.49704	12.28
353.15 K, x2 = 0.5	1063.1	1.49589	8.93
353.15 K, x2 = 0.7499	1052.9	1.49456	5.45
